The target in assay [1] is KLK7.
The target in assay [2] is KLK7. The source holds these as a separate data set.
From the text: Head of the field: Ki [nM]
In contrast to the first generation, they contain only two cysteines cyclized with one linker. The K values are shown as mean of three measurements ±SD.
First copying reader's note: The two cysteines are bridged by a drawn acetone (C=O) linker shown above the sequence columns; the Ki cells hold the value ± its error against KLK7.

Like-named read-outs stand apart in the source and are kept apart here.

As usually defined, the Ki is a dissociation constant, usually derived from enzyme kinetics or from competition with a known ligand. The low end stands for tighter binding, the high end for weaker binding.

On to P C L Y L S C P [compound 089], for which, in assay [1], the affinity corresponds to a Ki of 50 ± 5 nM. P C L Y L S R C S [compound 095]: the inhibition constant Ki in assay [2] amounted to 90 ± 7 nM. Same read-out and setting: the result for P C L Y M A R C S [compound 111] reads 10 ± 1.3 nM.

The values above are taken from US20220267379A1, “NOVEL INHIBITORS OF […] AND USES THEREOF” (Ecole Polytechnique Federale de Lausanne (EPFL), priority 2019, published 2022).
